# Assay results taken from paper PMC12102759 (Protein Science : A Publication of the Protein Society, 2025).
# Tested on: G3BP1 NFT2
# Type: binding, human
# Details: library DMS-CoV; bait G3BP1 NFT2; prey N; peptide APRITFGGPSDSTGSN; listed as aa = residue placed at this position; column sums to 1
Sequence,"DMS PSSM value, S (position 12)","DMS PSSM value, R (position 3)","DMS PSSM value, G (position 14)","DMS PSSM value, T (position 13)","DMS PSSM value, T (position 5)","DMS PSSM value, F (position 6)","DMS PSSM value, P (position 2)","DMS PSSM value, D (position 11)","DMS PSSM value, G (position 7)","DMS PSSM value, P (position 9)"
APRITFGGPSDSTGSN S12W (APRITFGGPSDWTGSN),0.01354,–,–,–,–,–,–,–,–,–
APRITFGGPSDSTGSN R3T (APTITFGGPSDSTGSN),–,0.001362,–,–,–,–,–,–,–,–
APRITFGGPSDSTGSN G14A (APRITFGGPSDSTASN),–,–,0.007074,–,–,–,–,–,–,–
APRITFGGPSDSTGSN T13H (APRITFGGPSDSHGSN),–,–,–,0.0006139,–,–,–,–,–,–
APRITFGGPSDSTGSN T5D (APRIDFGGPSDSTGSN),–,–,–,–,0,–,–,–,–,–
APRITFGGPSDSTGSN F6W (APRITWGGPSDSTGSN),–,–,–,–,–,0,–,–,–,–
APRITFGGPSDSTGSN F6R (APRITRGGPSDSTGSN),–,–,–,–,–,0,–,–,–,–
APRITFGGPSDSTGSN P2T (ATRITFGGPSDSTGSN),–,–,–,–,–,–,0,–,–,–
APRITFGGPSDSTGSN S12I (APRITFGGPSDITGSN),0.4295,–,–,–,–,–,–,–,–,–
APRITFGGPSDSTGSN G14N (APRITFGGPSDSTNSN),–,–,0.000305,–,–,–,–,–,–,–
APRITFGGPSDSTGSN D11Q (APRITFGGPSQSTGSN),–,–,–,–,–,–,–,0.007406,–,–
APRITFGGPSDSTGSN G7E (APRITFEGPSDSTGSN),–,–,–,–,–,–,–,–,0.08457,–
APRITFGGPSDSTGSN P2H (AHRITFGGPSDSTGSN),–,–,–,–,–,–,0,–,–,–
APRITFGGPSDSTGSN R3I (APIITFGGPSDSTGSN),–,0.2843,–,–,–,–,–,–,–,–
APRITFGGPSDSTGSN P9Q (APRITFGGQSDSTGSN),–,–,–,–,–,–,–,–,–,0
APRITFGGPSDSTGSN P2M (AMRITFGGPSDSTGSN),–,–,–,–,–,–,0,–,–,–

Sequence,"DMS PSSM value, S (position 12)","DMS PSSM value, R (position 3)","DMS PSSM value, G (position 14)","DMS PSSM value, T (position 13)","DMS PSSM value, T (position 5)","DMS PSSM value, F (position 6)","DMS PSSM value, P (position 2)","DMS PSSM value, D (position 11)","DMS PSSM value, G (position 7)","DMS PSSM value, P (position 9)"
APRITFGGPSDSTGSN S12K (APRITFGGPSDKTGSN),0,–,–,–,–,–,–,–,–,–
APRITFGGPSDSTGSN S12T (APRITFGGPSDTTGSN),0.00392,–,–,–,–,–,–,–,–,–
APRITFGGPSDSTGSN T5I (APRIIFGGPSDSTGSN),–,–,–,–,0.002921,–,–,–,–,–
APRITFGGPSDSTGSN F6Q (APRITQGGPSDSTGSN),–,–,–,–,–,0,–,–,–,–
APRITFGGPSDSTGSN P2R (ARRITFGGPSDSTGSN),–,–,–,–,–,–,0,–,–,–
APRITFGGPSDSTGSN R3W (APWITFGGPSDSTGSN),–,0.01451,–,–,–,–,–,–,–,–
APRITFGGPSDSTGSN S12E (APRITFGGPSDETGSN),0.0009188,–,–,–,–,–,–,–,–,–
APRITFGGPSDSTGSN G7N (APRITFNGPSDSTGSN),–,–,–,–,–,–,–,–,0,–
APRITFGGPSDSTGSN P9S (APRITFGGSSDSTGSN),–,–,–,–,–,–,–,–,–,0.003052
APRITFGGPSDSTGSN P2V (AVRITFGGPSDSTGSN),–,–,–,–,–,–,0,–,–,–
APRITFGGPSDSTGSN S12H (APRITFGGPSDHTGSN),0.0346,–,–,–,–,–,–,–,–,–
APRITFGGPSDSTGSN G14P (APRITFGGPSDSTPSN),–,–,0.002211,–,–,–,–,–,–,–
APRITFGGPSDSTGSN P9R (APRITFGGRSDSTGSN),–,–,–,–,–,–,–,–,–,0
APRITFGGPSDSTGSN P2D (ADRITFGGPSDSTGSN),–,–,–,–,–,–,0.06205,–,–,–
APRITFGGPSDSTGSN S12R (APRITFGGPSDRTGSN),0,–,–,–,–,–,–,–,–,–
APRITFGGPSDSTGSN T5P (APRIPFGGPSDSTGSN),–,–,–,–,0,–,–,–,–,–

# Same assay, conditions: library DMS-CoV; bait G3BP1 NFT2; prey N; peptide APRITFGGPSDSTGSN; listed as aa = residue placed at this position; column sums to 1
Sequence,"DMS PSSM value, S (position 10)","DMS PSSM value, I (position 4)","DMS PSSM value, S (position 15)","DMS PSSM value, A (position 1)"
APRITFGGPSDSTGSN S10R (APRITFGGPRDSTGSN),0,–,–,–
APRITFGGPSDSTGSN S10L (APRITFGGPLDSTGSN),0.002677,–,–,–
APRITFGGPSDSTGSN S10H (APRITFGGPHDSTGSN),0,–,–,–
APRITFGGPSDSTGSN I4T (APRTTFGGPSDSTGSN),–,0,–,–
APRITFGGPSDSTGSN S15T (APRITFGGPSDSTGTN),–,–,0.008335,–
APRITFGGPSDSTGSN S10V (APRITFGGPVDSTGSN),0.01109,–,–,–
APRITFGGPSDSTGSN A1G (GPRITFGGPSDSTGSN),–,–,–,0.004858
APRITFGGPSDSTGSN S10D (APRITFGGPDDSTGSN),0,–,–,–
APRITFGGPSDSTGSN S10G (APRITFGGPGDSTGSN),0,–,–,–
APRITFGGPSDSTGSN S15F (APRITFGGPSDSTGFN),–,–,0.2174,–
APRITFGGPSDSTGSN S15V (APRITFGGPSDSTGVN),–,–,0.03856,–
APRITFGGPSDSTGSN A1K (KPRITFGGPSDSTGSN),–,–,–,0

# Same assay, conditions: library DMS-CoV; bait G3BP1 NFT2; prey N; peptide RNAPRITFGGPSDSTG; listed as aa = residue placed at this position; column sums to 1
Sequence,"DMS PSSM value, P (position 4)","DMS PSSM value, F (position 8)","DMS PSSM value, T (position 15)","DMS PSSM value, A (position 3)","DMS PSSM value, N (position 2)","DMS PSSM value, S (position 12)","DMS PSSM value, T (position 7)","DMS PSSM value, R (position 5)","DMS PSSM value, P (position 11)","DMS PSSM value, D (position 13)"
RNAPRITFGGPSDSTG P4M (RNAMRITFGGPSDSTG),0,–,–,–,–,–,–,–,–,–
RNAPRITFGGPSDSTG F8R (RNAPRITRGGPSDSTG),–,0,–,–,–,–,–,–,–,–
RNAPRITFGGPSDSTG T15Y (RNAPRITFGGPSDSYG),–,–,0,–,–,–,–,–,–,–
RNAPRITFGGPSDSTG A3Q (RNQPRITFGGPSDSTG),–,–,–,0,–,–,–,–,–,–
RNAPRITFGGPSDSTG N2Q (RQAPRITFGGPSDSTG),–,–,–,–,0,–,–,–,–,–
RNAPRITFGGPSDSTG P4H (RNAHRITFGGPSDSTG),0,–,–,–,–,–,–,–,–,–
RNAPRITFGGPSDSTG S12T (RNAPRITFGGPTDSTG),–,–,–,–,–,0,–,–,–,–
RNAPRITFGGPSDSTG T7Q (RNAPRIQFGGPSDSTG),–,–,–,–,–,–,0,–,–,–
RNAPRITFGGPSDSTG T7G (RNAPRIGFGGPSDSTG),–,–,–,–,–,–,0,–,–,–
RNAPRITFGGPSDSTG A3R (RNRPRITFGGPSDSTG),–,–,–,0,–,–,–,–,–,–
RNAPRITFGGPSDSTG P4I (RNAIRITFGGPSDSTG),0,–,–,–,–,–,–,–,–,–
RNAPRITFGGPSDSTG N2A (RAAPRITFGGPSDSTG),–,–,–,–,0,–,–,–,–,–
RNAPRITFGGPSDSTG R5M (RNAPMITFGGPSDSTG),–,–,–,–,–,–,–,0.2004,–,–
RNAPRITFGGPSDSTG T7Y (RNAPRIYFGGPSDSTG),–,–,–,–,–,–,0,–,–,–
RNAPRITFGGPSDSTG P11V (RNAPRITFGGVSDSTG),–,–,–,–,–,–,–,–,0,–
RNAPRITFGGPSDSTG F8Y (RNAPRITYGGPSDSTG),–,0,–,–,–,–,–,–,–,–
RNAPRITFGGPSDSTG D13E (RNAPRITFGGPSESTG),–,–,–,–,–,–,–,–,–,0
RNAPRITFGGPSDSTG T15N (RNAPRITFGGPSDSNG),–,–,0,–,–,–,–,–,–,–
RNAPRITFGGPSDSTG F8G (RNAPRITGGGPSDSTG),–,0,–,–,–,–,–,–,–,–

Sequence,"DMS PSSM value, P (position 4)","DMS PSSM value, F (position 8)","DMS PSSM value, T (position 15)","DMS PSSM value, A (position 3)","DMS PSSM value, N (position 2)","DMS PSSM value, S (position 12)","DMS PSSM value, T (position 7)","DMS PSSM value, R (position 5)","DMS PSSM value, P (position 11)","DMS PSSM value, D (position 13)"
RNAPRITFGGPSDSTG R5A (RNAPAITFGGPSDSTG),–,–,–,–,–,–,–,0.0005421,–,–
RNAPRITFGGPSDSTG A3W (RNWPRITFGGPSDSTG),–,–,–,0,–,–,–,–,–,–
RNAPRITFGGPSDSTG P11D (RNAPRITFGGDSDSTG),–,–,–,–,–,–,–,–,0,–
RNAPRITFGGPSDSTG N2P (RPAPRITFGGPSDSTG),–,–,–,–,0,–,–,–,–,–
RNAPRITFGGPSDSTG P11N (RNAPRITFGGNSDSTG),–,–,–,–,–,–,–,–,0,–
RNAPRITFGGPSDSTG T7P (RNAPRIPFGGPSDSTG),–,–,–,–,–,–,0,–,–,–
RNAPRITFGGPSDSTG T15P (RNAPRITFGGPSDSPG),–,–,0,–,–,–,–,–,–,–
RNAPRITFGGPSDSTG T15H (RNAPRITFGGPSDSHG),–,–,0,–,–,–,–,–,–,–
RNAPRITFGGPSDSTG A3V (RNVPRITFGGPSDSTG),–,–,–,0,–,–,–,–,–,–
RNAPRITFGGPSDSTG P11H (RNAPRITFGGHSDSTG),–,–,–,–,–,–,–,–,0,–
RNAPRITFGGPSDSTG S12Y (RNAPRITFGGPYDSTG),–,–,–,–,–,0,–,–,–,–
RNAPRITFGGPSDSTG P4L (RNALRITFGGPSDSTG),0,–,–,–,–,–,–,–,–,–
RNAPRITFGGPSDSTG R5Y (RNAPYITFGGPSDSTG),–,–,–,–,–,–,–,0.03289,–,–
RNAPRITFGGPSDSTG D13Y (RNAPRITFGGPSYSTG),–,–,–,–,–,–,–,–,–,0
RNAPRITFGGPSDSTG P11Y (RNAPRITFGGYSDSTG),–,–,–,–,–,–,–,–,0,–
RNAPRITFGGPSDSTG R5F (RNAPFITFGGPSDSTG),–,–,–,–,–,–,–,0,–,–
RNAPRITFGGPSDSTG A3G (RNGPRITFGGPSDSTG),–,–,–,0.6104,–,–,–,–,–,–
RNAPRITFGGPSDSTG A3K (RNKPRITFGGPSDSTG),–,–,–,0,–,–,–,–,–,–
RNAPRITFGGPSDSTG S12E (RNAPRITFGGPEDSTG),–,–,–,–,–,0.6084,–,–,–,–

# Same assay, conditions: library DMS-CoV; bait G3BP1 NFT2; prey N; peptide RNAPRITFGGPSDSTG; listed as aa = residue placed at this position; column sums to 1
Sequence,"DMS PSSM value, S (position 14)","DMS PSSM value, G (position 10)","DMS PSSM value, G (position 16)","DMS PSSM value, G (position 9)","DMS PSSM value, I (position 6)"
RNAPRITFGGPSDSTG S14M (RNAPRITFGGPSDMTG),0.3095,–,–,–,–
RNAPRITFGGPSDSTG G10T (RNAPRITFGTPSDSTG),–,0,–,–,–
RNAPRITFGGPSDSTG G16A (RNAPRITFGGPSDSTA),–,–,0,–,–
RNAPRITFGGPSDSTG G9S (RNAPRITFSGPSDSTG),–,–,–,0,–
RNAPRITFGGPSDSTG I6E (RNAPRETFGGPSDSTG),–,–,–,–,0
RNAPRITFGGPSDSTG I6H (RNAPRHTFGGPSDSTG),–,–,–,–,0
RNAPRITFGGPSDSTG S14V (RNAPRITFGGPSDVTG),0,–,–,–,–
RNAPRITFGGPSDSTG G9N (RNAPRITFNGPSDSTG),–,–,–,0,–
RNAPRITFGGPSDSTG I6A (RNAPRATFGGPSDSTG),–,–,–,–,0
